“And” between values parts separate entries of the source, which are not always exact repeats. Identical values can stand only once. After the bases stand the sugars from the 5' end (letter, count) and the backbone: PS all phosphorothioate, else s phosphorothioate and o phosphodiester by linkage. Methylation of C is not given here. k = constrained ethyl (cEt); d = 2'-deoxy (DNA)
Target: MALAT1
Conditions: ASO, A431, 0.005 µM

TGCTGTTACCTCCCAC (sugars k3 d10 k3, PS)
target mRNA inhibition: 14%

TGGAAAGCGAGTTCAA (sugars k3 d10 k3, PS)
target mRNA inhibition: -4%

TGGCCTACTCAAGCTC (sugars k3 d10 k3, PS)
target mRNA inhibition: -8%

TGGGAATACTCTTCCA (sugars k3 d10 k3, PS)
target mRNA inhibition: 11%

TGGGAGTTACTTGCCA (sugars k3 d10 k3, PS)
target mRNA inhibition: 19%

TGGTGAATTCAACTGG (sugars k3 d10 k3, PS)
target mRNA inhibition: 33%

TGGTTAGGTATGAGCT (sugars k3 d10 k3, PS)
target mRNA inhibition: 4%

TGTAAACCTGTGGTGG (sugars k3 d10 k3, PS)
target mRNA inhibition: 48%

TGTACTATCCCATCAC (sugars k3 d10 k3, PS)
target mRNA inhibition: 51% and 71%

TGTCAATAGTACTATA (sugars k3 d10 k3, PS)
target mRNA inhibition: 18%

TGTCAATTTATAGACC (sugars k3 d10 k3, PS)
target mRNA inhibition: 6%

TGTGTTATGCCTGGTT (sugars k3 d10 k3, PS)
target mRNA inhibition: 1%

TGTTATGTTCACCTGA (sugars k3 d10 k3, PS)
target mRNA inhibition: 35%

TGTTTAAGTCACCTTC (sugars k3 d10 k3, PS)
target mRNA inhibition: 74% and 63%

TTAACAATTTGCAGGC (sugars k3 d10 k3, PS)
target mRNA inhibition: 66% and 79%

TTAACTTCCCCCAGCT (sugars k3 d10 k3, PS)
target mRNA inhibition: 0%

TTAAGAACTCCACAGC (sugars k3 d10 k3, PS)
target mRNA inhibition: 46%

TTAAGACCAAGGGAGG (sugars k3 d10 k3, PS)
target mRNA inhibition: 29%

TTAATGCTAGTCCTCA (sugars k3 d10 k3, PS)
target mRNA inhibition: 39%

TTAATGTCAGCCCAGT (sugars k3 d10 k3, PS)
target mRNA inhibition: 37%

TTACACATCCAAACTC (sugars k3 d10 k3, PS)
target mRNA inhibition: 1%

TTACAGTTCTTGAACA (sugars k3 d10 k3, PS)
target mRNA inhibition: 25%

TTACCATAAGTAAGTT (sugars k3 d10 k3, PS)
target mRNA inhibition: -20%

TTACTCTAATCACTGT (sugars k3 d10 k3, PS)
target mRNA inhibition: 33%

TTACTTCCGTTACGAA (sugars k3 d10 k3, PS)
target mRNA inhibition: -8%

TTAGTAACCTATTGAC (sugars k3 d10 k3, PS)
target mRNA inhibition: 34%

TTAGTAGCTTTTTGAT (sugars k3 d10 k3, PS)
target mRNA inhibition: 39%

TTATCTAAATACCACC (sugars k3 d10 k3, PS)
target mRNA inhibition: 2%

TTATCTGCGGTTTCCT (sugars k3 d10 k3, PS)
target mRNA inhibition: 45%

TTATTTAGAGGGCCTC (sugars k3 d10 k3, PS)
target mRNA inhibition: 57% and 72%

TTCAAACTAAGCTACT (sugars k3 d10 k3, PS)
target mRNA inhibition: 31%

TTCAAGCACCGCTTGA (sugars k3 d10 k3, PS)
target mRNA inhibition: 12% and 25%

TTCAAGCATTCCTTCG (sugars k3 d10 k3, PS)
target mRNA inhibition: 62%

TTCAGACAAGATTCAT (sugars k3 d10 k3, PS)
target mRNA inhibition: 51% and 37%

TTCAGGATCATTAAGC (sugars k3 d10 k3, PS)
target mRNA inhibition: 18%

TTCCACAGACCTCAAC (sugars k3 d10 k3, PS)
target mRNA inhibition: -4%

TTCCTTCGGATGCTTC (sugars k3 d10 k3, PS)
target mRNA inhibition: 50%

TTCGATCACCTTCCGC (sugars k3 d10 k3, PS)
target mRNA inhibition: 12%

TTCGCTTTTATTCTGC (sugars k3 d10 k3, PS)
target mRNA inhibition: 69% and 88%

TTCGGTTAAAAATAGG (sugars k3 d10 k3, PS)
target mRNA inhibition: -7%

TTCTAGACAGACCTAA (sugars k3 d10 k3, PS)
target mRNA inhibition: 29%

TTCTATAGTCTGAAGA (sugars k3 d10 k3, PS)
target mRNA inhibition: 14%

TTCTTAACAGCTTATG (sugars k3 d10 k3, PS)
target mRNA inhibition: 21%

TTCTTCGGTTAAAAAT (sugars k3 d10 k3, PS)
target mRNA inhibition: 2%

TTGACCTTAGGATAAT (sugars k3 d10 k3, PS)
target mRNA inhibition: 47%

TTGCACTCGCTCCTTC (sugars k3 d10 k3, PS)
target mRNA inhibition: 33%

TTGCAGGGACGGTTGA (sugars k3 d10 k3, PS)
target mRNA inhibition: -10%

TTGCTCACATGCCAGT (sugars k3 d10 k3, PS)
target mRNA inhibition: 40%

TTGGCACACTGGCATG (sugars k3 d10 k3, PS)
target mRNA inhibition: 24%

TTTAAAGTAGACCAAC (sugars k3 d10 k3, PS)
target mRNA inhibition: -49%

TTTAAATGACGCAATT (sugars k3 d10 k3, PS)
target mRNA inhibition: 15%

TTTAACTTCCCCCAGC (sugars k3 d10 k3, PS)
target mRNA inhibition: -2%

TTTAAGCCTTCGGTGC (sugars k3 d10 k3, PS)
target mRNA inhibition: 13%

TTTAATCATACTCCAG (sugars k3 d10 k3, PS)
target mRNA inhibition: 24%

TTTACCAACCACTCGC (sugars k3 d10 k3, PS)
target mRNA inhibition: 18%

TTTATCACTCAGCTGG (sugars k3 d10 k3, PS)
target mRNA inhibition: 53%

TTTCATCCTACCACTC (sugars k3 d10 k3, PS)
target mRNA inhibition: 27%

TTTGAAGCATACCTTA (sugars k3 d10 k3, PS)
target mRNA inhibition: -1%

TTTTAAAAAGGCTCGA (sugars k3 d10 k3, PS)
target mRNA inhibition: 12%

TTTTAAACGGGTCATC (sugars k3 d10 k3, PS)
target mRNA inhibition: 17%

TTTTAATCACCTTCGG (sugars k3 d10 k3, PS)
target mRNA inhibition: 44%

TTTTAGCAGTAACATC (sugars k3 d10 k3, PS)
target mRNA inhibition: 34%
